Assay results from patent US20180148418A1, “AMIDO-SUBSTITUTED CYCLOHEXANE DERIVATIVES” (Bayer Pharma Aktiengesellschaft, priority 2015, published 2018).
pIC50: −log10 of the molar value. Structures can show the parent of a compound that is named as a salt.

What was measured:
[1] = biological target: T1, TNKS2 (Homo sapiens, UniProt Q9H2K2); test: TNKS2 Assay B (auto-parsylation, [3H]-NAD+ SPA); format: biochemical; conditions: 6 nM TNKS2, auto-parsylation, over night at room temperature
T1 construct: purchased BPS Bioscience, San Diego, USA 80572 (TNKS2 Histone Ribosylation Assay Kit)
T1 sequence (Q9H2K2 1-1166): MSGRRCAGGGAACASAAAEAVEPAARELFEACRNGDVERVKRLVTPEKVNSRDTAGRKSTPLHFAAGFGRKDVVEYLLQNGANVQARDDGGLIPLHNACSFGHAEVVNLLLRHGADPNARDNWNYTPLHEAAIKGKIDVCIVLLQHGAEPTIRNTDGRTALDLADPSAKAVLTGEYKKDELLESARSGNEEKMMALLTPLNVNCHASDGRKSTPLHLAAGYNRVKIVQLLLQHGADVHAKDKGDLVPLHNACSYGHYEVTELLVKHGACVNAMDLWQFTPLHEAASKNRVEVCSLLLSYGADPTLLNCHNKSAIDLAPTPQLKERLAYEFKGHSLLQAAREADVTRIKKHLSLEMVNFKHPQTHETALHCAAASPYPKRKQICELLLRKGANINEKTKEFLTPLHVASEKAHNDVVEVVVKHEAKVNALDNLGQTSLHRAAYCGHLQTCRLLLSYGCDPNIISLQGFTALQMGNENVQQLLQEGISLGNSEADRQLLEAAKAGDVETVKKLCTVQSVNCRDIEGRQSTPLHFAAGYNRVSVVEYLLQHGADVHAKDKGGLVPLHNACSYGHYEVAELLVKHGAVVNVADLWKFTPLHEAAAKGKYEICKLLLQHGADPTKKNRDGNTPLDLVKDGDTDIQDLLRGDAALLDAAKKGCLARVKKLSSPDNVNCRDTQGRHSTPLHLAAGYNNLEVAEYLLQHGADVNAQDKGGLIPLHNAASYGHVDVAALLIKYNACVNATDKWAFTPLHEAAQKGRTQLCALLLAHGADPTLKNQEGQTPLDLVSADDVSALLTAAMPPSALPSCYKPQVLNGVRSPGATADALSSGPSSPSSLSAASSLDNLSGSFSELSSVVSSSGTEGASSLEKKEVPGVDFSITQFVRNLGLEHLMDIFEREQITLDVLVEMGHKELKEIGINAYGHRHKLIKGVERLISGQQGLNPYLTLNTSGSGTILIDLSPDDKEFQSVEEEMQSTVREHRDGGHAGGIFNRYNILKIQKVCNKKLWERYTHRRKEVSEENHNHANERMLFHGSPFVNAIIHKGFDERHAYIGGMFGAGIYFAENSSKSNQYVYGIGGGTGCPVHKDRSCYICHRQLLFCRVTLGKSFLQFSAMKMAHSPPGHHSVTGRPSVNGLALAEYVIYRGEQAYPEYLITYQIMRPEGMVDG

[2] = test system: HEK293 cells cotransfected with the FOP control vector; test: HEK293 FOP assay (control reporter with non-functional TCF elements); format: cell-based; conditions: Homo sapiens, 16 hours
Method in brief: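 Stable HEK293 line carrying FOP control reporter (randomized non-functional TCF sites, with pcDNA3), Geneticin-selected, plated 24 h before assay. Stimulated with recombinant human Wnt-3a (2500-5 ng/ml) and compounds 50 μM–15 nM (3.16-fold steps) in CAFTY buffer pH 7.4 with 2 mM Ca2+, 0.01% BSA, run parallel to TOP line.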

[3] = test system: wildtype Wnt signaling cascade; test: HEK293 TOP assay (Super TopFlash luciferase reporter, Wnt-3a stimulated); format: cell-based; conditions: Homo sapiens, HEK293 TOP reporter cells, Wnt3a at EC50, 16 hours
Method in brief: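 HEK293 cells stably carrying Super TopFlash (TOP) run in parallel with FOP cells, 10000/well plated 24 h ahead, stimulated with recombinant human Wnt-3a. Compounds tested 50 μM to 15 nM in 3.16-fold steps in CAFTY buffer pH 7.4 with 2 mM Ca^2+ and 0.01% BSA; luciferase read-out.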

Structure (SMILES)	pIC50 [1]	pIC50 ([3]; HEK293, 16 h)	pIC50 [2]	pIC50 [3]
Cc1c(C(C)N(C)C)cnc2c(C(=O)N[C@H]3CC[C@H](C(=O)Nc4ccc(F)cc4Cl)CC3)cnn12 (mixture of isomers) [Example 55, N-{trans-4-[(2-chloro-4-fluorophenyl)carbamoyl]cyclohexyl}-6-[1-(dimethylamino)ethyl]-7-methylpyrazolo[1,5-a]pyrimidine-3-carboxamide formic acid salt]	6.31		≤ 4.30	6.55
CNC(C)c1cnc2c(C(=O)N[C@H]3CC[C@H](C(=O)Nc4ccc(F)cc4Cl)CC3)cnn2c1C (stereo partly drawn) [Example 54, N-{trans-4-[(2-chloro-4-fluorophenyl)carbamoyl]cyclohexyl}-7-methyl-6-[1-(methylamino)ethyl]pyrazolo[1,5-a]pyrimidine-3-carboxamide formic acid salt]	6.17		≤ 4.30	6.21

More lines, main results first:

pIC50 [1]	pIC50 ([3]; HEK293, 16 h)	Structure (SMILES)	pIC50 [2]	pIC50 [3]
7.00		CNC(=O)c1[nH]cnc1C(=O)NC1CCC(C(=O)Nc2ccc(F)cc2Cl)CC1C (racemic) [Example 39, N^4-{4-[(2-chloro-4-fluorophenyl)carbamoyl]-2-methylcyclohexyl}-N^5-methyl-1H-imidazole-4,5-dicarboxamide]		
6.64	7.60	O=C(NCCN1CCCCC1)c1nc[nH]c1C(=O)N[C@H]1CC[C@H](C(=O)Nc2ccc(F)cc2Cl)CC1 [Example 2, N^5-{trans-4-[(2-chloro-4-fluorophenyl)carbamoyl]cyclohexyl}-N^4-[2-(piperidin-1-yl)ethyl]-1H-imidazole-4,5-dicarboxamide]	≤ 4.30	
5.17	5.74	COCC(C)NC(=O)c1nc[nH]c1C(=O)N[C@H]1CC[C@H](C(=O)Nc2cc(N3CCOCC3)ccc2Cl)CC1 (stereo partly drawn) [Example 91, N^5-(trans-4-{[2-chloro-5-(morpholin-4-yl)phenyl]carbamoyl}cyclohexyl)-N^4-(1-methoxypropan-2-yl)-1H-imidazole-4,5-dicarboxamide]	≤ 4.30	
